Data published in ChEMBL document CHEMBL1201862, “PubChem BioAssay data set” (2004).
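Growth conditions: 96-well plates. Treatment: test compound, 48 hours, 5 concentrations. Analysis: linear interpolation between bracketing concentrations; unreached endpoints set to highest concentration. GI50: concentration for 50% inhibition of growth.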 Active and inactive are the calls of the source. No stated cut-off is given here; in the data, active = GI50 up to about 1.1 µM and inactive = higher.

Legend:
Test in all cases: NCI anticancer screen, dose series, 48 h
HOP-62 = system: HOP-62
SF-539 = system: SF-539
HCT-116 = system: HCT-116
MOLT-4 = system: MOLT-4
SF-295 = system: SF-295
COLO 205 = system: COLO 205
IGROV-1 = system: IGROV-1
NCI-H23 = system: NCI-H23
U-251 = system: U-251
NCI-H226 = system: NCI-H226
TK-10 = system: TK-10
ACHN = system: ACHN
OVCAR-4 = system: OVCAR-4
M19-MEL = system: M19-MEL
UACC-62 = system: UACC-62
NCI-H522 = system: NCI-H522
OVCAR-3 = system: OVCAR-3
DMS-273 = system: DMS-273
CCRF-CEM = system: CCRF-CEM
SK-MEL-28 = system: SK-MEL-28
SNB-19 = system: SNB-19
SK-MEL-5 = system: SK-MEL-5
SK-MEL-2 = system: SK-MEL-2
SNB-75 = system: SNB-75
HL-60 = system: HL-60
HT-29 = system: HT-29
OVCAR-8 = system: OVCAR-8
RPMI-8226 = system: RPMI-8226
CAKI-1 = system: CAKI-1
KM-20L2 = system: KM-20L2
Malme-3M = system: Malme-3M
HOP-92 = system: HOP-92
UACC-257 = system: UACC-257
HCT-15 = system: HCT-15
M14 = system: M14
EKVX = system: EKVX
A549 = system: A549
KM12 = system: KM12
SW-620 = system: SW-620
K562 = system: K562
XF498 = system: XF498
NCI-H460 = system: NCI-H460
HCC 2998 = system: HCC 2998
SK-OV-3 = system: SK-OV-3
UO-31 = system: UO-31
DLD-1 = system: DLD-1
LXFL 529 = system: LXFL 529
786-0 = system: 786-0
OVCAR-5 = system: OVCAR-5
A498 = system: A498
SF-268 = system: SF-268
SN12C = system: SN12C
DMS-114 = system: DMS-114
SR = system: SR

In the case of `O=C1C2=C(c3ccccc31)C(c1ccccc1Cl)NC(S)=N2` (stereo unspecified), the GI50 (HOP-62) is reported as > 100 µM (inactive), the GI50 (SF-539) is reported as 97.1 µM (inactive) and the GI50 (HCT-116) is reported as 44.9 µM (inactive). For the same compound, the GI50 (MOLT-4) was 31.8 µM (inactive), the GI50 (SF-295) was 51.1 µM (inactive) and the GI50 (COLO 205) was 69.3 µM (inactive). For the same compound, the GI50 (IGROV-1) was 56.8 µM (inactive), the GI50 (NCI-H23) was 39.4 µM (inactive) and the GI50 (U-251) was 77.6 µM (inactive). The GI50 (NCI-H226) was 8.65 µM (inactive), the GI50 (TK-10) was 75.2 µM (inactive) and the GI50 (ACHN) was 41.8 µM (inactive). For the same compound, the GI50 (OVCAR-4) was 35.6 µM (inactive), the GI50 (M19-MEL) was 44.2 µM (inactive) and the GI50 (UACC-62) was 34.6 µM (inactive). The GI50 (NCI-H522) was 31.8 µM (inactive), the GI50 (OVCAR-3) was 38.1 µM (inactive) and the GI50 (DMS-273) was 68.7 µM (inactive). The GI50 (CCRF-CEM) was 48.2 µM (inactive), the GI50 (SK-MEL-28) was 55.5 µM (inactive) and the GI50 (SNB-19) was 52.1 µM (inactive). For the same compound, the GI50 (SK-MEL-5) was 20.2 µM (inactive), the GI50 (SK-MEL-2) was 29.1 µM (inactive) and the GI50 (SNB-75) was 26.9 µM (inactive). The GI50 (HL-60) was 34 µM (inactive), the GI50 (HT-29) was 51.9 µM (inactive) and the GI50 (OVCAR-8) was 53 µM (inactive). The GI50 (RPMI-8226) was 37.4 µM (inactive), the GI50 (CAKI-1) was 38.2 µM (inactive) and the GI50 (KM-20L2) was 74.3 µM (inactive). The GI50 (Malme-3M) was 39 µM (inactive), the GI50 (HOP-92) was 16.5 µM (inactive) and the GI50 (UACC-257) was 51.3 µM (inactive). The GI50 (HCT-15) was 59.2 µM, the GI50 (M14) was 51.8 µM (inactive) and the GI50 (EKVX) was > 100 µM (inactive). For the same compound, the GI50 (A549) was 85.1 µM (inactive), the GI50 (KM12) was 44.5 µM (inactive) and the GI50 (SW-620) was 74.5 µM (inactive). The GI50 (K562) was 49.2 µM (inactive), the GI50 (XF498) was 25.6 µM (inactive) and the GI50 (NCI-H460) was 72.8 µM (inactive). For the same compound, the GI50 (HCC 2998) was > 100 µM (inactive), the GI50 (SK-OV-3) was > 100 µM (inactive) and the GI50 (UO-31) was 30.6 µM (inactive). The GI50 (DLD-1) was 64.9 µM (inactive), the GI50 (LXFL 529) was 35.3 µM (inactive) and the GI50 (786-0) was > 100 µM (inactive). For the same compound, the GI50 (OVCAR-5) was > 100 µM (inactive), the GI50 (A498) was 61.8 µM (inactive) and the GI50 (SF-268) was 51.5 µM (inactive). The GI50 (SN12C) was 41.3 µM (inactive).
For `Cc1ccc(NCC2(/N=C/c3ccccc3)OC(CO)C(O)C2O)cc1` (stereo unspecified), the GI50 (HOP-62) was 12.4 µM (inactive), the GI50 (SF-539) was 41.7 µM (inactive) and the GI50 (HCT-116) was 36.6 µM (inactive). For the same compound, the GI50 (MOLT-4) was 40.1 µM (inactive), the GI50 (SF-295) was 24.3 µM (inactive) and the GI50 (COLO 205) was 42.2 µM (inactive). The GI50 (IGROV-1) was > 100 µM (inactive), the GI50 (NCI-H23) was 54.1 µM (inactive) and the GI50 (U-251) was 24.2 µM (inactive). For the same compound, the GI50 (NCI-H226) was > 100 µM (inactive), the GI50 (TK-10) was > 100 µM (inactive) and the GI50 (ACHN) was 74.3 µM (inactive). The GI50 (OVCAR-4) was 60.1 µM (inactive), the GI50 (UACC-62) was 54.1 µM (inactive) and the GI50 (NCI-H522) was 37.5 µM (inactive). The GI50 (OVCAR-3) was 41.7 µM (inactive), the GI50 (DMS-273) was 31.2 µM (inactive) and the GI50 (CCRF-CEM) was 31.6 µM (inactive). For the same compound, the GI50 (SK-MEL-28) was 62.5 µM (inactive), the GI50 (SNB-19) was > 100 µM (inactive) and the GI50 (SK-MEL-5) was 23.3 µM (inactive). For the same compound, the GI50 (SK-MEL-2) was 31 µM (inactive), the GI50 (SNB-75) was 26.2 µM (inactive) and the GI50 (HL-60) was 20.5 µM (inactive). For the same compound, the GI50 (HT-29) was 35.8 µM (inactive), the GI50 (OVCAR-8) was > 100 µM (inactive) and the GI50 (RPMI-8226) was 35 µM (inactive). For the same compound, the GI50 (CAKI-1) was 46.6 µM (inactive), the GI50 (KM-20L2) was 20.8 µM (inactive) and the GI50 (Malme-3M) was 37.2 µM (inactive). The GI50 (HOP-92) was 64 µM (inactive), the GI50 (UACC-257) was > 100 µM (inactive) and the GI50 (HCT-15) was 26.5 µM. The GI50 (M14) was 40.9 µM (inactive), the GI50 (A549) was 44 µM (inactive) and the GI50 (KM12) was 67.9 µM (inactive). The GI50 (SW-620) was 36.7 µM (inactive), the GI50 (K562) was 27.9 µM (inactive) and the GI50 (XF498) was > 100 µM (inactive). For the same compound, the GI50 (NCI-H460) was 32.7 µM (inactive), the GI50 (HCC 2998) was 91.2 µM (inactive) and the GI50 (UO-31) was 61.7 µM (inactive). The GI50 (DLD-1) was 72.4 µM (inactive), the GI50 (DMS-114) was 40 µM (inactive) and the GI50 (SR) was 27.1 µM (inactive). The GI50 (LXFL 529) was 77.6 µM (inactive), the GI50 (786-0) was 49.5 µM (inactive) and the GI50 (OVCAR-5) was > 100 µM (inactive). For the same compound, the GI50 (SF-268) was 81.1 µM (inactive).
